Assay results reported in PubChem BioAssay AID248 (DTP/NCI, 2004).
“And” between values parts separate entries of the source, which are not always exact repeats. Equal entries are not always repeated. Toxic doses and inconclusive results are not listed. Cut-off read from the data, not from the text of the source: active = T/C of 150% or more; inactive = T/C below 125%.

Tested on: L1210 leukemia ip in BDF1 mice, survival T/C
Assay: NCI In Vivo Anticancer Drug Screen. Data for tumor model L1210 Leukemia (intraperitoneal) in B6D2F1 (BDF1) mice
Details: endpoint: mean survival time, higher = longer survival
Outline: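 Each compound was tested against a transplantable tumor grown in mice. The endpoint was survival, with treated animals benchmarked against vehicle controls as a simple ratio.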

[1] = dose: 100.0 mg/kg/injection, schedule: Q01DX009 (ip), vehicle: Klucel (hydroxypropylcellulose) (HPC)
[2] = dose: 200.0 mg/kg/injection, schedule: Q01DX009 (ip), vehicle: Klucel (hydroxypropylcellulose) (HPC)
[3] = dose: 100.0 mg/kg/injection, schedule: Q04DX003 (ip), vehicle: saline
[4] = dose: 200.0 mg/kg/injection, schedule: Q04DX003 (ip), vehicle: saline
[5] = dose: 400.0 mg/kg/injection, schedule: Q04DX003 (ip), vehicle: saline
[6] = dose: 100.0 mg/kg/injection, schedule: Q04DX002 (ip), vehicle: Klucel (hydroxypropylcellulose) (HPC)
[7] = dose: 200.0 mg/kg/injection, schedule: Q04DX002 (ip), vehicle: Klucel (hydroxypropylcellulose) (HPC)
[8] = dose: 400.0 mg/kg/injection, schedule: Q04DX002 (ip), vehicle: Klucel (hydroxypropylcellulose) (HPC)
[9] = dose: 100.0 mg/kg/injection, schedule: Q04DX003 (ip), vehicle: saline with Tween-80
[10] = dose: 100.0 mg/kg/injection, schedule: Q01DX001 (ip), vehicle: carboxymethylcellulose (CMC)
[11] = dose: 200.0 mg/kg/injection, schedule: Q01DX001 (ip), vehicle: carboxymethylcellulose (CMC)

Measured: T/C

CO/N=C1\CC(C)N2C(=O)C(C(C)C)NC(=O)C(NC(=O)c3c4nc5c(C(=O)NC6C(=O)NC(C(C)C)C(=O)N7C(C)CC(O)C7C(=O)N(C)CC(=O)N(C)C(C(C)C)C(=O)OC6C)ccc(C)c5oc-4c(C)c(=O)c3N)C(CO)OC(=O)C(C)N(C)C(=O)CN(C)C(=O)C12 (stereo not drawn)
inactive: dose: 0.1 mg/kg/injection, schedule: Q01DX009 (ip), vehicle: saline + alcohol 96 % of control | dose: 0.2 mg/kg/injection, schedule: Q01DX009 (ip), vehicle: saline + alcohol 102 % of control | dose: 0.3 mg/kg/injection, schedule: Q04DX003 (ip), vehicle: saline + alcohol 96 % of control | dose: 0.4 mg/kg/injection, schedule: Q01DX009 (ip), vehicle: saline + alcohol 97 % of control | dose: 0.6 mg/kg/injection, schedule: Q04DX003 (ip), vehicle: saline + alcohol 107 % of control | dose: 0.8 mg/kg/injection, schedule: Q01DX001 (ip), vehicle: saline + alcohol 97 % of control | dose: 0.8 mg/kg/injection, schedule: Q01DX009 (ip), vehicle: saline + alcohol 111 % of control | dose: 1.2 mg/kg/injection, schedule: Q04DX003 (ip), vehicle: saline + alcohol 97 % of control | dose: 1.6 mg/kg/injection, schedule: Q01DX001 (ip), vehicle: saline + alcohol 103 % of control | dose: 1.6 mg/kg/injection, schedule: Q01DX009 (ip), vehicle: saline + alcohol 100 % of control | dose: 2.4 mg/kg/injection, schedule: Q04DX003 (ip), vehicle: saline + alcohol 112 % of control | dose: 3.2 mg/kg/injection, schedule: Q01DX001 (ip), vehicle: saline + alcohol 110 % of control | dose: 4.8 mg/kg/injection, schedule: Q04DX003 (ip), vehicle: saline + alcohol 110 % of control | dose: 6.4 mg/kg/injection, schedule: Q01DX001 (ip), vehicle: saline + alcohol 106 % of control | dose: 12.8 mg/kg/injection, schedule: Q01DX001 (ip), vehicle: saline + alcohol 101 % of control

COC1=CCC(OC)=C(C)C1
inactive: dose: 150.0 mg/kg/injection, schedule: Q01DX009 (ip), vehicle: saline 95 % of control | dose: 225.0 mg/kg/injection, schedule: Q01DX009 (ip), vehicle: saline 94 % of control

CC(C)COC(=O)c1ccc(NC(=S)Nc2ccccc2)cc1
inactive: [1] 93 % of control | [2] 93 % of control

OCC1OC(n2cnc3c(NCCNc4ncnc5c4ncn5C4OC(CO)C(O)C4O)ncnc32)C(O)C1O (stereo not drawn)
inactive: dose: 50.0 mg/kg/injection, schedule: Q04DX002 (ip), vehicle: saline 102 % of control | dose: 100.0 mg/kg/injection, schedule: Q04DX002 (ip), vehicle: saline 110 % of control

CCC(NC(=O)c1cnc2ccccc2n1)C(=O)O (stereo not drawn)
inactive: [3] 101 % of control | [4] 92 % of control | [5] 90 % of control

Cc1ccc(SCCN)cc1
inactive: dose: 75.0 mg/kg/injection, schedule: Q01DX001 (ip), vehicle: saline 105 % of control | dose: 150.0 mg/kg/injection, schedule: Q01DX001 (ip), vehicle: saline 96 % of control

O=C(CNC(=O)c1ccccc1)c1ccccc1
inactive: [6] 105 % of control | [7] 102 % of control | [8] 108 % of control

O=c1oc2c(-c3ccccc3)cccc2c(O)c1-c1ccccc1
inactive: dose: 25.0 mg/kg/injection, schedule: Q04DX003 (ip), vehicle: saline with Tween-80 96 % of control | dose: 50.0 mg/kg/injection, schedule: Q04DX003 (ip), vehicle: saline with Tween-80 101 % of control | [9] 93 % of control | [3] 95 % of control | [4] 93 % of control | [5] 93 % of control

COc1ccc(I)c([N+](=O)[O-])c1
inactive: [1] 96 % of control | dose: 100.0 mg/kg/injection, schedule: Q04DX003 (ip), vehicle: Klucel (hydroxypropylcellulose) (HPC) 100 % of control | [2] 96 % of control | dose: 200.0 mg/kg/injection, schedule: Q04DX003 (ip), vehicle: Klucel (hydroxypropylcellulose) (HPC) 94 % of control | dose: 400.0 mg/kg/injection, schedule: Q04DX003 (ip), vehicle: Klucel (hydroxypropylcellulose) (HPC) 103 % of control

Cc1cc(=O)[nH]c2c(C)cc(Cc3cc(C)c4[nH]c(=O)cc(C)c4c3)cc12
inactive: [10] 96 % of control | [11] 101 % of control | dose: 400.0 mg/kg/injection, schedule: Q01DX001 (ip), vehicle: carboxymethylcellulose (CMC) 103 % of control

CC(C)CC(CO)Cc1nc2ccccc2[nH]1 (stereo not drawn)
inactive: dose: 50.0 mg/kg/injection, schedule: Q04DX002 (ip), vehicle: Klucel (hydroxypropylcellulose) (HPC) 95 % of control | [6] 95 % of control | dose: 100.0 mg/kg/injection, schedule: Q04DX002 (ip), vehicle: other 105 % of control | dose: 100.0 mg/kg/injection, schedule: Q04DX003 (ip), vehicle: other 97 % of control | [7] 93 % of control and 92 % of control | dose: 200.0 mg/kg/injection, schedule: Q04DX002 (ip), vehicle: other 91 % of control and 92 % of control | dose: 200.0 mg/kg/injection, schedule: Q04DX003 (ip), vehicle: other 94 % of control | [8] 105 % of control | dose: 400.0 mg/kg/injection, schedule: Q04DX002 (ip), vehicle: other 102 % of control

COc1cc(OC)c(NC(=O)NC(C)C)cc1Cl
inactive: [9] 98 % of control | dose: 200.0 mg/kg/injection, schedule: Q04DX003 (ip), vehicle: saline with Tween-80 89 % of control | dose: 400.0 mg/kg/injection, schedule: Q04DX003 (ip), vehicle: saline with Tween-80 88 % of control

c1ccc2c(OCCN3CC3)nccc2c1
inactive: [10] 103 % of control | [11] 113 % of control

CCCCNC(=O)C(F)(F)F
inactive: dose: 100.0 mg/kg/injection, schedule: Q01DX001 (ip), vehicle: other 100 % of control | dose: 200.0 mg/kg/injection, schedule: Q01DX001 (ip), vehicle: other 98 % of control | dose: 400.0 mg/kg/injection, schedule: Q01DX001 (ip), vehicle: other 98 % of control

c1ccc(-c2nn(-c3ccccc3)[n+](-c3cccc4ccccc34)n2)cc1
inactive: dose: 1.0 mg/kg/injection, schedule: Q01DX015 (ip), vehicle: carboxymethylcellulose (CMC) 100 % of control | dose: 2.0 mg/kg/injection, schedule: Q01DX015 (ip), vehicle: carboxymethylcellulose (CMC) 102 % of control | dose: 4.0 mg/kg/injection, schedule: Q01DX015 (ip), vehicle: carboxymethylcellulose (CMC) 102 % of control | dose: 8.0 mg/kg/injection, schedule: Q01DX015 (ip), vehicle: carboxymethylcellulose (CMC) 105 % of control

CCN(CC)CCNc1ccc(N=Nc2ccc(SC)cc2)c2ccccc12
inactive: dose: 6.25 mg/kg/injection, schedule: Q01DX015 (ip), vehicle: carboxymethylcellulose (CMC) 91 % of control | dose: 12.5 mg/kg/injection, schedule: Q01DX015 (ip), vehicle: carboxymethylcellulose (CMC) 93 % of control | dose: 25.0 mg/kg/injection, schedule: Q01DX015 (ip), vehicle: carboxymethylcellulose (CMC) 86 % of control | dose: 50.0 mg/kg/injection, schedule: Q01DX009 (ip), vehicle: saline with Tween-80 94 % of control | dose: 50.0 mg/kg/injection, schedule: Q01DX015 (ip), vehicle: carboxymethylcellulose (CMC) 87 % of control | dose: 50.0 mg/kg/injection, schedule: Q04DX003 (ip), vehicle: saline 96 % of control | dose: 100.0 mg/kg/injection, schedule: Q01DX009 (ip), vehicle: saline with Tween-80 103 % of control | [3] 89 % of control | [4] 88 % of control
